Measured values reported in patent US20200331882A1, “COMPOUND FOR SIMULTANEOUSLY INHIBITING LSD1 AND HDAC TARGETS AND APPLICATION THEREOF” (PEKING UNIVERSITY SHENZHEN GRADUATE SCHOOL, priority 2018, published 2020).
Like-named read-outs stand apart in the source and are kept apart here. One block for each compound: values may come before it.

How the values were obtained:
5637 = test: CellTiter-Glo cell proliferation; assay type: cell-based; details: CTG, 72 hours; for % inhibition at top conc.: highest concentration 10/50 μM; for IC50: read-out: Absolute IC50
Method: (§1) The effect of the present invention compound ZZY-003 on the cell proliferation of 50 cell lines was evaluated by CellTiter-Glo (CTG) method, and the 50% inhibitory concentration was calculated by detecting the cell viability after treatment with different drug concentrations. The cells were resuscitated and cultured in their respective culture media. The cells in logarithmic growth phase were harvested and the cells were counted by cell counter. The cell viability was detected by Trypan blue exclusion method to ensure that the cell line viability was more than 96%. The cell concentration was adjusted by diluting with the culture medium, and 90 μL cell suspension was added to the 96-well cell plate (including the cell control T0 on the day of drug treatment) to make the cell density reach the specified concentration. The cells in the 96-well plate were cultured overnight at 37° C., 5% CO2 and 95% humidity. 10 μL culture medium was added to the control cell culture plate. CellTiter-Glo reagent and cell culture plate were placed at room temperature to balance for 30 minutes. The same volume of CellTiter-Glo reagent was added to each well. Vibrate on the orbital shaker for 2 min to make the cells fully lytic. The cell culture plate was placed at room temperature to balance for 10 minutes. Chemiluminescence values were read with EnVision. The storage solution was formed by dissolving the tested compound with the corresponding solvent and diluted in gradient to obtain 10 times working concentration solution, and 10 times solution of positive drug was also prepared. 10 μL drug solution was added to each well in the 96-well plate in which the cells were inoculated, and each cell concentration was provided with three duplicate wells. The highest concentration of the tested compound was 10/50 μM, 9 concentrations and 3.16 times dilution. The cells in the 96-well plate added with drug were cultured at 37° C., 5% CO2 and 95% humidity for 72 hours. CellTiter-Glo reagent and drug-treated cell culture plate were placed at room temperature to balance for 30 minutes. The same volume of CellTiter-Glo reagent was added to each well. Vibrate on the orbital shaker for 2 minutes to make the cells fully lytic. The cell culture plate was placed at room temperature to balance for 10 minutes. Chemiluminescence values were read with EnVision. Data processing: […] Cell survival rate (%)=(Lum drug to be detected−Lum culture medium control)/(Lum cell control−Lum culture medium control)×100%; Lum cell control−Lum culture medium control was set to 100%, LumMedium control value was set to 0%;

143B = test: CellTiter-Glo cell proliferation; assay type: cell-based; details: CTG, 72 hours; for % inhibition at top conc.: highest concentration 10/50 μM; for IC50: read-out: Absolute IC50
Method: as §1

MOLM-13 = test: CellTiter-Glo cell proliferation; assay type: cell-based; details: CTG, 72 hours; for % inhibition at top conc.: highest concentration 10/50 μM; for IC50: read-out: Absolute IC50
Method: as §1

PC-3 = test: CellTiter-Glo cell proliferation; assay type: cell-based; details: CTG, 72 hours; for % inhibition at top conc.: highest concentration 10/50 μM; for IC50: read-out: Absolute IC50
Method: as §1

SK-OV-3 = test: CellTiter-Glo cell proliferation; assay type: cell-based; details: CTG, 72 hours; for % inhibition at top conc.: highest concentration 10/50 μM; for IC50: read-out: Absolute IC50
Method: as §1

SU-DHL-6 = test: CellTiter-Glo cell proliferation; assay type: cell-based; details: CTG, 72 hours; for % inhibition at top conc.: highest concentration 10/50 μM; for IC50: read-out: Absolute IC50
Method: as §1

HCT-116 = test: CellTiter-Glo cell proliferation; assay type: cell-based; details: CTG, 72 hours; for % inhibition at top conc.: highest concentration 10/50 μM; for IC50: read-out: Absolute IC50
Method: as §1

HL-60 = test: CellTiter-Glo cell proliferation; assay type: cell-based; details: CTG, 72 hours; for % inhibition at top conc.: highest concentration 10/50 μM; for IC50: read-out: Absolute IC50
Method: as §1

Jurkat clone E6-1 = test: CellTiter-Glo cell proliferation; assay type: cell-based; details: CTG, 72 hours; for % inhibition at top conc.: highest concentration 10/50 μM; for IC50: read-out: Absolute IC50
Method: as §1

MCF7 = test: CellTiter-Glo cell proliferation; assay type: cell-based; details: CTG, 72 hours; for % inhibition at top conc.: highest concentration 10/50 μM
Method: as §1

HeLa = test: CellTiter-Glo cell proliferation; assay type: cell-based; details: CTG, 72 hours; for % inhibition at top conc.: highest concentration 10/50 μM; for IC50: read-out: Absolute IC50
Method: as §1

UO.31 = test: CellTiter-Glo cell proliferation; assay type: cell-based; details: CTG, 72 hours; for % inhibition at top conc.: highest concentration 10/50 μM; for IC50: read-out: Absolute IC50
Method: as §1

LP-1 = test: CellTiter-Glo cell proliferation; assay type: cell-based; details: CTG, 72 hours; for % inhibition at top conc.: highest concentration 10/50 μM; for IC50: read-out: Absolute IC50
Method: as §1

JVM-3 = test: CellTiter-Glo cell proliferation; assay type: cell-based; details: CTG, 72 hours; for % inhibition at top conc.: highest concentration 10/50 μM; for IC50: read-out: Absolute IC50
Method: as §1

OPM2 = test: CellTiter-Glo cell proliferation; assay type: cell-based; details: 72 hours; for % inhibition at top conc.: highest concentration 10/50 μM; for IC50: read-out: Absolute IC50
Method: as §1

AZ-521 = test: CellTiter-Glo cell proliferation; assay type: cell-based; details: CTG, 72 hours; for % inhibition at top conc.: highest concentration 10/50 μM; for IC50: read-out: Absolute IC50
Method: as §1

U-937 = test: CellTiter-Glo cell proliferation; assay type: cell-based; details: CTG, 72 hours; for % inhibition at top conc.: highest concentration 10/50 μM; for IC50: read-out: Absolute IC50
Method: as §1

PANC-1 = test: CellTiter-Glo cell proliferation; assay type: cell-based; details: CTG, 72 hours; for % inhibition at top conc.: highest concentration 10/50 μM; for IC50: read-out: Absolute IC50
Method: as §1

NCI-H82 = test: CellTiter-Glo cell proliferation; assay type: cell-based; details: CTG, 72 hours; for % inhibition at top conc.: highest concentration 10/50 μM; for IC50: read-out: Absolute IC50
Method: as §1

OE19 = test: CellTiter-Glo cell proliferation; assay type: cell-based; details: CTG, 72 hours; for % inhibition at top conc.: highest concentration 10/50 μM; for IC50: read-out: Absolute IC50
Method: as §1

T84 = test: CellTiter-Glo cell proliferation; assay type: cell-based; details: CTG, 72 hours; for % inhibition at top conc.: highest concentration 10/50 μM; for IC50: read-out: Absolute IC50
Method: as §1

[1] = target: T1, recombinant human LSD1 protein (Homo sapiens, UniProt O60341); test: In vitro LSD1 inhibitory activity, LSD1-HRP coupling reaction (Amplex Red); assay type: biochemical; details: LSD1 enzyme activity in vitro; 30 min preincubation; H3K4Me2 peptide
T1 construct: made in house; host or cells: E. coli
Excerpt: LSD1 activity was detected by using LSD1-HRP coupling reaction. […] During the reduction of H2O2 to H2O, Amplex Red acts as an electron donor and oxidizes to Resorufin for detection of fluorescence. […] Ampliflu™ Red, peroxidase, from horseradish required for the experiment was purchased from SIGMA; H3K4Me2 substrate peptide was purchased from GL Biochemical (Shanghai) Co., Ltd.

SMILES: N.N.[Cl][Pt][Cl] [Cisplatin, reference compound]
% inhibition at top conc. 5637: 99.05%
IC50 5637: 2.6 µM
% inhibition at top conc. (143B): 99.94%
IC50 (143B): 1.15 µM
% inhibition at top conc. (MOLM-13): 99.99%
IC50 (MOLM-13): 0.77 µM
% inhibition at top conc. (PC-3): 85.52%
IC50 (PC-3): 5.34 µM
% inhibition at top conc. (SK-OV-3): 89.16%
IC50 (SK-OV-3): 5.17 µM
% inhibition at top conc. (SU-DHL-6): 99.95%
IC50 (SU-DHL-6): 5.65 µM
% inhibition at top conc. (HCT-116): 95.72%
IC50 (HCT-116): 3.15 µM
% inhibition at top conc. (HL-60): 99.99%
IC50 (HL-60): 1.56 µM
% inhibition at top conc. (Jurkat clone E6-1): 99.96%
IC50 (Jurkat clone E6-1): 0.84 µM
% inhibition at top conc. (MCF7): 90.30%
% inhibition at top conc. (HeLa): 99.45%
IC50 (HeLa): 0.37 µM
% inhibition at top conc. (UO.31): 97.89%
IC50 (UO.31): 4.23 µM
% inhibition at top conc. (LP-1): 99.89%
IC50 (LP-1): 8.68 µM
% inhibition at top conc. (JVM-3): 99.71%
IC50 (JVM-3): 0.7 µM
% inhibition at top conc. (OPM2; CTG): 99.97%
IC50 (OPM2; CTG): 3.67 µM
% inhibition at top conc. (AZ-521): 99.92%
IC50 (AZ-521): 2.89 µM
% inhibition at top conc. (U-937): 99.97%
IC50 (U-937): 2.19 µM
% inhibition at top conc. (PANC-1): 94.45%
IC50 (PANC-1): 8.67 µM
% inhibition at top conc. (NCI-H82): 99.63%
IC50 (NCI-H82): 4 µM
% inhibition at top conc. (OE19): 62.99%
IC50 (OE19): 25.8 µM
% inhibition at top conc. (T84): 87.03%
IC50 (T84): 5.05 µM

IC50 (MOLM-13; Homo sapiens): 0.21 µM
IC50 (PC-3; Homo sapiens): 1.38 µM
IC50 (SK-OV-3; Homo sapiens): 1.59 µM
IC50 (SU-DHL-6; Homo sapiens): 0.3 µM
IC50 (HCT-116; Homo sapiens): 0.43 µM
IC50 (HL-60; Homo sapiens): 0.31 µM
IC50 (Jurkat clone E6-1; Homo sapiens): 0.48 µM
IC50 (MCF7; Homo sapiens, read-out: Absolute IC50): 1.61 µM
IC50 (HeLa; Homo sapiens): 1.4 µM
IC50 (U-937; Homo sapiens): 0.46 µM
IC50 (PANC-1; Homo sapiens): 5.84 µM
IC50 (NCI-H82; Homo sapiens): 0.37 µM
IC50 [1]: 0.44 µM
SMILES: Cc1ccc(C(=O)Nc2cc(N3CCNCC3)ccc2-c2ccc(/C=C/C(=O)NO)cc2C)cc1.Cl [ZZY-003]
% inhibition at top conc. 5637: 99.95%
IC50 5637: 0.82 µM
% inhibition at top conc. (143B): 99.97%
IC50 (143B; Homo sapiens): 2.25 µM
% inhibition at top conc. (MOLM-13): 99.99%
% inhibition at top conc. (PC-3): 96.56%
% inhibition at top conc. (SK-OV-3): 99.68%
% inhibition at top conc. (SU-DHL-6): 99.91%
% inhibition at top conc. (HCT-116): 99.94%
% inhibition at top conc. (HL-60): 99.93%
% inhibition at top conc. (Jurkat clone E6-1): 99.61%
% inhibition at top conc. (MCF7): 96.26%
% inhibition at top conc. (HeLa): 98.88%
% inhibition at top conc. (UO.31): 99.92%
IC50 (UO.31; Homo sapiens): 4.56 µM
% inhibition at top conc. (LP-1): 98.94%
IC50 (LP-1; Homo sapiens): 0.26 µM
% inhibition at top conc. (JVM-3): 99.48%
IC50 (JVM-3; Homo sapiens): 0.35 µM
% inhibition at top conc. (OPM2; CTG): 98.99%
IC50 (OPM2; Homo sapiens, OPM-2, CTG): 0.35 µM
% inhibition at top conc. (AZ-521): 99.95%
IC50 (AZ-521; Homo sapiens): 0.68 µM
% inhibition at top conc. (U-937): 99.99%
% inhibition at top conc. (PANC-1): 96.79%
% inhibition at top conc. (NCI-H82): 99.94%
% inhibition at top conc. (OE19): 98.95%
IC50 (OE19; Homo sapiens): 0.78 µM
% inhibition at top conc. (T84): 98.70%
IC50 (T84; Homo sapiens): 9.95 µM
